Laboratory results: patent US20150038527A1, “FUROPYRIDINE DERIVATIVES” (Merck Patent GmbH, priority 2012, published 2015)

Columns and labels:
RA = RA Phase II studies in humans; cited from earlier work
murine model of RA = conditions: cited from earlier work
SYK = biological target: T1, SYK (Homo sapiens, UniProt P43405); test: SYK Flash Plate Assay (enzyme assay); format: biochemical
T1 construct: 2.5 nM SYK, 400 nM Biotin-Aha-Aha-KEDPDYEWPSAKK and 10 μM ATP

IC50 (SYK)	Compound	also measured
	COc1cc(Nc2ncc(F)c(Nc3ccc4c(n3)NC(=O)C(C)(C)O4)n2)cc(OC)c1OC [Compound R406]	efficacy (ACR scores) (RA): efficacy (ACR scores improvement); tolerability (RA): good tolerability; bone erosion (murine model of RA): significantly reduced; clinical scores (murine model of RA): significant improvement of clinical scores; serum cytokine concentrations (murine model of RA): significantly reduced serum cytokine concentrations
0.1 to 0.3 µM	COc1ccc(C(N)=O)cc1-c1cc2nccc(-c3cc([C@@H](C)N)ccc3OC)c2o1 [Compound A1, 3-{7-[5-((R)-1-Amino-ethyl)-2-methoxy-phenyl]-furo[3,2-b]pyridin-2-yl}-4-methoxy-benzamide]	
0.3 to 3 µM	COc1cc(-c2cc3nccc(-c4ccc(O)nc4)c3o2)cc(OC)c1OC [Compound A38, 5-[2-(3,4,5-trimethoxy-phenyl)-furo[3,2-b]pyridin-7-yl]-pyridin-2-ol]	
0.3 to 3 µM	CCc1ccc(OC)c(-c2cc3nccc(-c4cccc(C(=O)N[C@@H]5CCCC[C@@H]5N)c4)c3o2)c1 [Compound A43, N-((1R,2S)-2-amino-cyclohexyl)-3-[2-(5-ethyl-2-methoxy-phenyl)-furo[3,2-b]pyridin-7-yl]-benzamide]	
< 0.1 µM	COc1ccc(C(N)=O)cc1-c1cc2nccc(-c3ccc4[nH]cnc4c3)c2o1 [Compound A9, 3-[7-(1H-benzoimidazol-5-yl)-furo[3,2-b]pyridin-2-yl]-4-methoxy-benzamide]	
0.3 to 3 µM	COc1cc(-c2cc3nccc(-c4ccnc(NC[C@@H]5CCCNC5)c4)c3o2)cc(OC)c1OC [Compound A7, (R)-1-piperidin-3-ylmethyl-{4-[2-(3,4,5-trimethoxy-phenyl)-furo[3,2-b]pyridin-7-yl]-pyridin-2-yl}-amine]	
0.3 to 3 µM	COc1cc(-c2cc3nccc(-c4cc(C(=O)N[C@@H]5CCCC[C@@H]5N)ccc4F)c3o2)cc(OC)c1OC [Compound A48, N-((1R,2S)-2-mino-cyclohexyl)-4-fluoro-3-[2-(3,4,5-trimethoxy-phenyl)furo[3,2-b]pyridin-7-yl]-benzamide]	
0.3 to 3 µM	COc1cc(-c2cc3nccc(-c4cccc(C(=O)N[C@@H]5C[C@@H]5N)c4)c3o2)cc(OC)c1OC [Compound A64, N-((1R,2S)-2-amino-cyclopropyl)-3-[2-(3,4,5-trimethoxy-phenyl)-furo[3,2-b]pyridin-7-yl]-benzamide]	
0.3 to 3 µM	COc1cc(-c2cc3nccc(-c4cccc(C(=O)NCC(N)C5CC5)c4)c3o2)cc(OC)c1OC (stereo not shown) [Compound A23, N-(2-amino-2-cyclopropyl-ethyl)-3-[2-(3,4,5-trimethoxy-phenyl)-furo[3,2-b]pyridin-7-yl]-benzamide]	
3 to 50 µM	COc1cc(-c2cc3nccc(-c4cccc(C(=O)NCC(C)(C)N)c4)c3o2)cc(OC)c1OC [Compound A32, N-(2-amino-2-methyl-propyl)-3-[2-(3,4,5-trimethoxy-phenyl)-furo[3,2-b]pyridin-7-yl]-benzamide]	
0.3 to 3 µM	COc1ccc(C(=O)NCC(O)CO)cc1-c1cc2nccc(-c3c(OC)cccc3OC)c2o1 (stereo not shown) [Compound A70, N-(2,3-dihydroxy-propyl)-3-[7-(2,6-dimethoxy-phenyl)-furo[3,2-b]pyridin-2-yl]-4-methoxy-benzamide]	
3 to 50 µM	COc1cc(-c2cc3nccc(-c4cc(F)cc(C(=O)NCCCN)c4)c3o2)cc(OC)c1OC [Compound A61, N-(3-amino-propyl)-3-fluoro-5-[2-(3,4,5-trimethoxy-phenyl)-furo[3,2-b]pyridin-7-yl]-benzamide]	
